Results from patent US6645479B1, “Targeted delivery of active/bioactive and perfuming compositions” (International Flavors & Fragrances Inc., priority 1997, dated 2003).

assay: Vapor pressure of fragrance components; settings: not given

Row | Compound | Vapor Pressure mm/Hg at 25° C. [mm/Hg]
1 | CC(C)=CCCC(C)CCO (stereo not shown) [citronellol] | 0.009
2 | C=CC(C)CCCC(C)(C)O (stereo not shown) [dihydromyrcenol] | 0.09
3 | CC(=O)c1cc2c(cc1C)C(C)(C)C(C)CC2(C)C (stereo not shown) [TONALID ®] | 0.0001
4 | CCCCCCC(C=O)=Cc1ccccc1 [hexyl cinnamic aldehyde] | 0.0003
5 | CC(=O)OC(C)c1ccccc1 (stereo not shown) [styralyl acetate] | 0.1
6 | CC(=O)OC1CCC(C(C)(C)C)CC1 (stereo not shown) [VERTENEX ® HC] | 0.03
7 | CC(=O)OCc1ccccc1 [benzyl acetate] | 0.1
8 | CC1(C)[C@H]2CC[C@]1(C)[C@H](O)C2 [l-borneol] | 0.02
9 | CC(=O)O[C@@H]1C[C@H]2CC[C@]1(C)C2(C)C (racemic) [isobornyl acetate] | 0.09
10 | C=CCOC(=O)COCCC(C)C [allyl amyl glycolate] | 0.07
11 | CC1=CCC(C(C)(C)O)CC1 (stereo not drawn) [α-terpineol] | 0.02
12 | CC12CCC(CC1=O)C2(C)C (stereo not shown) [camphor] | 0.1
13 | C=CC(C)(CCC=C(C)C)OC(C)=O (stereo not shown) [linalyl acetate] | 0.07
14 | CC(C=O)Cc1ccc(C(C)C)cc1 (stereo not shown) [cyclamal] | 0.004
15 | CC(C=O)Cc1ccc(C(C)(C)C)cc1 (stereo not shown) [LILIAL ®] | 0.003
16 | C=CC(C)(O)CCC=C(C)C (stereo not shown) [linalool] | 0.05
17 | CC(=O)/C=C/C1=C(C)CCCC1(C)C [β-ionone] | 0.006
18 | CC(=O)C1(C)CC2=C(CCCC2(C)C)CC1C (stereo not shown) [ISO E SUPER ®] | 0.002
19 | C=CCc1ccc(OC)cc1 [methyl chavicol] | 0.09
20 | CC1=CC(C)C(C=O)CC1 (stereo not shown) | 0.3
21 | CC/C=C\CCOC(C)=O [cis-3-hexenyl acetate] | 2.0
22 | CCCCCCCCCC(C)C=O (stereo not shown) [methyl nonyl acetaldehyde] | 0.009
23 | CC/C=C\CCOC(=O)c1ccccc1O [cis-3-hexenyl salicylate] | 0.0008
24 | peach aldehyde coeur | 0.002
25 | OCCc1ccccc1 [β-phenyl ethyl alcohol] | 0.02

assay: IFF permeation test: permeation rate through wax or polymer matrix; settings: matrix: carnauba wax
From the text: Referring to FIGS. 4A and 4B, fluid 46 is located in jar 44. Jar 44 has sidearm 45. The fluid 46 reaches fluid level 47. Directly in line with fluid level 47 is membrane 41. The diffusion membrane 41 is held in place with flanges 43 and jar lip 42, using bolts 401a and 401b which secures the flange in place. The sidearm 45 is closed using closure 49. The permeability apparatus is shown using reference numeral 40. The IFF permeability test is based on the use of the apparatus of FIGS. 4A and 4B. The weight of membrane 41 is taken, initially, before being placed within the flange 43 and the jar lip 42. Substance 46 for which the permeability is to be measured is placed into jar 44 to fluid level 47. The apparatus containing fluid 46 remains in place for a fixed period of time. At the end of that period of time, bolts 401a and 401b as well as 401c are loosened, the flange 43 removed and membrane 41 is removed and weighed, thereby gathering sufficient data to determine the permeability of the particular substance 46. […] The Y axis measures weight loss and is indicated by reference numeral 54.

Row | Compound | permeation rate through matrix material
26 | C/C=C(\C)C(=O)OCC [ethyl tiglate] | 4.4 × 10^−4

same assay, conditions: matrix: polyamide (MACROMELT 6030)

Row | Compound | permeation rate through matrix material
27 | C/C=C(\C)C(=O)OCC [ethyl tiglate] | 4.2 × 10^−4

same assay, conditions: matrix: polyethylene wax, molecular weight 500

Row | Compound | permeation rate through matrix material
28 | C/C=C(\C)C(=O)OCC [ethyl tiglate] | 2.0 × 10^−5
